According to ChEMBL document CHEMBL1139180, “Design, synthesis, and bioactivity of novel inhibitors of E. coli aspartate transcarbamoylase” (Bioorg Med Chem Lett, 2007):

Assay: Inhibition of Escherichia coli ATCase

SMILES | IC50
NC(=O)CC(NC(=O)CP(=O)(O)O)C(=O)O (stereo not given) | 0.225 µM
O=C(CP(=O)(O)O)NC(C(=O)O)C(=O)O | 43.5 µM
CC(O)C(NC(=O)CP(=O)(O)O)C(=O)O (stereo not given) | 42 µM
O=C(CP(=O)(O)O)NC(CCO)C(=O)O (stereo not given) | 3.9 µM
NC(=O)C(CC(=O)O)NC(=O)CP(=O)(O)O (stereo not given) | 0.087 µM
O=C(CP(=O)(O)O)NC(Cc1ccc(O)cc1)C(=O)O (stereo not given) | 63 µM
O=C(CP(=O)(O)O)NC(CO)C(=O)O (stereo not given) | 30 µM
O=C(CP(=O)(O)O)NC(CO)CO | 12500 µM
O=C(CP(=O)(O)O)NC(CO)CCO (stereo not given) | 2900 µM
O=C(O)C[C@H](NC(=O)CP(=O)(O)O)C(=O)O [PALA] | 0.055 µM
